{"source": "patent US20060069104A1", "about": "“Neurotrophic factor production accelerator” (priority 2002, published 2006)", "tested_on": "GDNF mRNA in cultured astroglia", "assay": "Quantification of GDNF mRNA by RT-PCR in cultured astroglia", "format": "cell-based, Wistar rat", "conditions": "cultured rat astroglia", "procedure": "Astroglia was prepared from the brain of a 1 to 2-day-old Wistar rat. It was inoculated to a 75 cm^2 culture flask, and incubated in Eagle's minimum essential medium supplemented with 10% fetal bovine serum for 10 to 14 days. Then, it was shaken overnight at 250 rpm, and microglia and oligodendroglia on the astroglia monolayer were removed. Astroglia was dispersed in 0.25% trypsin (1:400, Invitrogen), and inoculated to a 6-well plate. It was further incubated for 7 to 10 days, and confluent cells were used for the experiment.\nThe cultured astroglia prepared by the above-mentioned method was incubated in serum-free Eagle's minimum essential medium for 48 hours. The total RNA was prepared by AGPC (Acid Guanidinium-Phenol-Chloroform) method (Chomczynski P., and Sacchi N., Anal. Biochem. 162, 156-159 (1987)). […] The fluorescence intensity of the PCR product was imaged by Fluoro Imager (Molecular Dynamics), and fluorescence bands were quantified by NIH Image. The amount of the PCR product of the eurotrophic factor was standardized using the amount of the β-actin PCR product of cDNA, and the amount of relative mRNA was determined. The activity of N-(4-acetyl-1-piperazinyl)-p-fluorobenzamide monohydrate (hereinafter to be also referred to as a test drug.) on neurotrophic factor production was evaluated by a Tukey-Kramer assay. […]"}
{"smiles": "CC(=O)N1CCN(NC(=O)c2ccc(F)cc2)CC1.O", "note": "[test drug, N-(4-acetyl-1-piperazinyl)-p-fluorobenzamide monohydrate]", "values": [{"measurement": "amount of GDNF mRNA (relative mRNA amount standardized using the amount of the β-actin PCR product)", "setting": "serum-free medium, from 3 hours after the treatment with the test drug, RT-PCR, Tukey-Kramer", "value": "significant increase"}, {"measurement": "time of peak of GDNF mRNA amount after treatment", "setting": "time-course after treatment with the test drug (FIG. 1)", "value": 6, "unit": "h"}]}
